Experimental data from patent US8329687B2, “Pyridooxazepine derivative and use thereof” (Takeda Pharmaceutical Company Limited, priority 2007, dated 2012).
Where a name gives a salt, the structure may show the parent alone.

Biological target: serotonin 5-HT2C receptor (VSV type isoform) stably expressed in CHO cell (Homo sapiens, UniProt P28335, I156V/I160V/N158S)
Test: cell-based
Format: cell-based
Conditions: for Emax: CHO, read-out: ratio relative to maximum response by 5-HT (1 μM)

serotonin 5-HT2C receptor (VSV type isoform) stably expressed in CHO cell, sequence (P28335 33-458 I156V/N158S/I160V limits assumed): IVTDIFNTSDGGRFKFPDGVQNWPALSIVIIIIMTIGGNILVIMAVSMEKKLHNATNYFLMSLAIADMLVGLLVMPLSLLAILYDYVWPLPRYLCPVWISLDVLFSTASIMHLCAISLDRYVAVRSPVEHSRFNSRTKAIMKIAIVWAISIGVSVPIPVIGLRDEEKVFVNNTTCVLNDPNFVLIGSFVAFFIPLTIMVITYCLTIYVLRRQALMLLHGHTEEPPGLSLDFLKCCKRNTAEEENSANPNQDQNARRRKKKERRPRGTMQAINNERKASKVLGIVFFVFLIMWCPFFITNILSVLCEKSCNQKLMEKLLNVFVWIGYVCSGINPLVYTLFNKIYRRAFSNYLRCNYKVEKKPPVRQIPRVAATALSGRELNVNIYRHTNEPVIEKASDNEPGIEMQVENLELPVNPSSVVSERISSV

SMILES | ratio relative to maximum response by 5-HT (1 μM) | Emax [%]
CC(Oc1ccc2c(n1)OCCNC2)C1CC1.CC(Oc1ccc2c(n1)OCCNC2)C1CC1.O=C(O)CCC(=O)O (single isomer, unassigned; (+)) [Example 36, (+)-8-(1-cyclopropylethoxy)-2,3,4,5-tetrahydropyrido[3,2-f][1,4]oxazepine 0.5 succinate] | 104.7 | 
CC(Oc1ccc2c(n1)OCCNC2)C1CC1.CC(Oc1ccc2c(n1)OCCNC2)C1CC1.O=C(O)CCC(=O)O (single isomer, unassigned; (-)) [Example 35, (−)-8-(1-cyclopropylethoxy)-2,3,4,5-tetrahydropyrido[3,2-f][1,4]oxazepine 0.5 succinate] | 93.7 | 
CC(C)(C)Oc1ccc2c(n1)OCCNC2 [Example 1, 8-tert-butoxy-2,3,4,5-tetrahydropyrido[3,2-f][1,4]oxazepine] |  | 98.6
CC(C)COc1ccc2c(n1)OCCNC2 [Example 3, 8-isobutoxy-2,3,4,5-tetrahydropyrido[3,2-f][1,4]oxazepine hydrochloride] |  | 101
CC(C)Oc1ccc2c(n1)OCCNC2.CC(C)Oc1ccc2c(n1)OCCNC2.O=C(O)CCC(=O)O [Example 5, 8-isopropoxy-2,3,4,5-tetrahydropyrido[3,2-f][1,4]oxazepine 0.5 succinate] | 97.7 | 
CCOc1ccc2c(n1)OCCNC2 [Example 13, 8-ethoxy-2,3,4,5-tetrahydropyrido[3,2-f][1,4]oxazepine hydrochloride] |  | 97.4
CC(Oc1ccc2c(n1)OCCNC2)C1CC1.CC(Oc1ccc2c(n1)OCCNC2)C1CC1.O=C(O)CCC(=O)O (centres unmarked) [Example 16, 8-(1-cyclopropylethoxy)-2,3,4,5-tetrahydropyrido[3,2-f][1,4]oxazepine 0.5 succinate] | 98.8 | 
FC1(F)CCC(Oc2ccc3c(n2)OCCNC3)CC1 [Example 23, 8-[(4,4-difluorocyclohexyl)oxy]-2,3,4,5-tetrahydropyrido[3,2-f][1,4]oxazepine hydrochloride] |  | 83.8
CC(C)[C@H](C)Oc1ccc2c(n1)OCCNC2 [Example 24, 8-{[(1S)-1,2-dimethylpropyl]oxy}-2,3,4,5-tetrahydropyrido[3,2-f][1,4]oxazepine hydrochloride] |  | 94.7
CC(C)[C@@H](C)Oc1ccc2c(n1)OCCNC2 [Example 25, 8-{[(1R)-1,2-dimethylpropyl]oxy}-2,3,4,5-tetrahydropyrido[3,2-f][1,4]oxazepine hydrochloride] |  | 98.6
CC[C@H](C)Oc1ccc2c(n1)OCCNC2 [Example 26, 8-{[(1S)-1-methylpropyl]oxy}-2,3,4,5-tetrahydropyrido[3,2-f][1,4]oxazepine hydrochloride] |  | 97.6
CC[C@@H](C)Oc1ccc2c(n1)OCCNC2 [Example 27, 8-{[(1R)-1-methylpropyl]oxy}-2,3,4,5-tetrahydropyrido[3,2-f][1,4]oxazepine hydrochloride] |  | 99.8
c1ccc(Oc2ccc3c(n2)OCCNC3)cc1 [Example 28, 8-phenoxy-2,3,4,5-tetrahydropyrido[3,2-f][1,4]oxazepine hydrochloride] |  | 91.2
CC(C)Sc1ccc2c(n1)OCCNC2 [Example 37, 8-(isopropylthio)-2,3,4,5-tetrahydropyrido[3,2-f][1,4]oxazepine hydrochloride] |  | 94.5
